Experimental data taken from patent US9249147B2, “Tyrosine kinase inhibitors” (CHEMBRIDGE CORPORATION, priority 2008, dated 2016).
Several values for one entry are separate records, joined by “and”; a condition that tells them apart may be missing. Equal entries are not always repeated.

How the values were obtained:
[1] = Solubility in acidic aqueous formulation vehicle; type: physicochemical; conditions: pH 4-6
Protocol: The solubility of compound (II) in aqueous buffers has been tested at Cerep, as part of ADMET Study 13170. […] Such aqueous solubility was at least as good as or higher than a typical one for a small molecule, ATP-competitive kinase inhibitor. The compound has much higher aqueous solubility at lower pH. 20-50 mM acetic or tartaric acid (pH 4-6) was used to dissolve the compound at concentrations up to 5 mg/ml (or ˜10 mM); this type of formulation was used for our animal toxicity and PK studies. Compound (II) was also well soluble in such organic solvents as DMSO or N-methyl pyrrolidone and can be subsequently solubilized in aqueous formulations containing 2% Tween 80 or 5-20% Solutol HS15.

CYP2C9 = molecular target: T1, CYP2C9 (Homo sapiens, UniProt P11712); experiment: CYP2C9 Inhibition (recombinant, MFC substrate); type: in vitro ADME
T1 construct: purchased Cerep (contract assay, ADMET Study 13170)
T1 sequence (P11712 whole entry): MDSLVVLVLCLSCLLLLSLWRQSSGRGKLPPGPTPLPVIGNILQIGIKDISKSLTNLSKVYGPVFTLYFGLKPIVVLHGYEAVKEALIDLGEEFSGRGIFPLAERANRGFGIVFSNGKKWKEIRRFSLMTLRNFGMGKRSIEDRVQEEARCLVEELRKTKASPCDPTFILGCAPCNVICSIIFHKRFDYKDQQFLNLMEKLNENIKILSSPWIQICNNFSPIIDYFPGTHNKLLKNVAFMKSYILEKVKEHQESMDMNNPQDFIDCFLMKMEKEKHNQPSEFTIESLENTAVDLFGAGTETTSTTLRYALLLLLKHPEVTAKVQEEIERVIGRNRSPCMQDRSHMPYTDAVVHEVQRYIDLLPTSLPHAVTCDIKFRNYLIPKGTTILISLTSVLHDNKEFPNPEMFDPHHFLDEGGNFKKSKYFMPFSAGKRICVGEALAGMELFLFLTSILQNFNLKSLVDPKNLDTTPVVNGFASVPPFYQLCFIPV

[2] = Maximum Tolerated Dose toxicity study in mice; conditions: both, CD-1, mouse, in vivo, 14 days
Protocol: The toxicity study in mice (Maximum Tolerated Dose) was done with CD-1 strain of mice in groups of 50% male-50% female animals (10 animals per group) at the dosing levels of 2.5, 5, 10, and 20 mg/kg (intarperitoneal) and 5 and 10 mg/kg (peroral). Animals were dosed for 14 days, bid (the actual daily doses were twice those shown) and observed without dosing for additional 14 days. […].

[3] = system: non-ALKdependent cell lines; experiment: Cell proliferation inhibition, non-ALK-dependent control cell lines; type: cell-based; conditions: 12 unrelated cell lines; read-out: Lowest IC50s for non-ALK-dependent cell lines
Text: (§1) Cell proliferation inhibition assays were run for compound (II) with the five target NPM-ALK-dependent ALCL cell lines (Karpas 299, SuDHL-1, JB6, SupM2, UConn) and 12 unrelated cell lines (HEK293, CHO-K1, MCF7, HepG2, H292, H520, H1581, H596, H522, CHA-GO-K1, UMC-11, SK-MES1). […] The pronounced target cell-killing effect is also observed (molecular mechanisms to be determined).

UConn = experiment: Cell proliferation inhibition, ALCL line UConn; type: cell-based; conditions: Example 4, least sensitive line; read-out: Proliferation IC50 UConn
Text: as §1

[4] = Caco-2 (TC7) A-B Permeability test (pH 6.5/7.4); conditions: human
[5] = Plasma Protein Binding (Human), equilibrium dialysis; type: in vitro ADME; conditions: 1.0E−05 M
Fer = molecular target: T2, Fer (Homo sapiens, UniProt P16591); experiment: Invitrogen SelectScreen Z-lyte kinase assay, Fer; type: biochemical
T2 construct: purchased Invitrogen
T2 sequence (P16591 whole entry): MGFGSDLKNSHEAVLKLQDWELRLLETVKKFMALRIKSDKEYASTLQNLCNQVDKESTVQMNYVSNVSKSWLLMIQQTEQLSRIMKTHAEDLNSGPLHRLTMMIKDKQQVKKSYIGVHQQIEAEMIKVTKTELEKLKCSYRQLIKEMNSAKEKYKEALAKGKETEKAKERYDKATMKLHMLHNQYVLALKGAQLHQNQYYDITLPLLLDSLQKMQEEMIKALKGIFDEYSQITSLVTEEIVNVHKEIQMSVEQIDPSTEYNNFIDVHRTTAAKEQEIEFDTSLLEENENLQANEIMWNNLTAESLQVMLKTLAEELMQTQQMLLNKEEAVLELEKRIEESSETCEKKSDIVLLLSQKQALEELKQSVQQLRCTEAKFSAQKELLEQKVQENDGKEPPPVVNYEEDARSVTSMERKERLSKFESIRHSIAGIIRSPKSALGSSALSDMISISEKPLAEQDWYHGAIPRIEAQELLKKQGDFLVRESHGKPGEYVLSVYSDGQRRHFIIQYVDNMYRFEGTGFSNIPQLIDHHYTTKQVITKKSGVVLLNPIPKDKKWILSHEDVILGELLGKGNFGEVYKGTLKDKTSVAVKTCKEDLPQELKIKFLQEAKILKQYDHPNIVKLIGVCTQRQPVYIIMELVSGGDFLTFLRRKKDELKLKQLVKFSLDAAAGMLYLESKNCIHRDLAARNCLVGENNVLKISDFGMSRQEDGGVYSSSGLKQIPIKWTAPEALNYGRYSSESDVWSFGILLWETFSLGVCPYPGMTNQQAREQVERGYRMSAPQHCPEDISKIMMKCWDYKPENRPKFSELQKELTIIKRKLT

ALK = ALK (Homo sapiens, UniProt Q9UM73); experiment: Invitrogen SelectScreen Z-lyte kinase assay, ALK; type: biochemical; design: purchased Invitrogen (SelectScreen service); conditions: 100 μM ATP
Chain of ALK (Q9UM73 19-1620): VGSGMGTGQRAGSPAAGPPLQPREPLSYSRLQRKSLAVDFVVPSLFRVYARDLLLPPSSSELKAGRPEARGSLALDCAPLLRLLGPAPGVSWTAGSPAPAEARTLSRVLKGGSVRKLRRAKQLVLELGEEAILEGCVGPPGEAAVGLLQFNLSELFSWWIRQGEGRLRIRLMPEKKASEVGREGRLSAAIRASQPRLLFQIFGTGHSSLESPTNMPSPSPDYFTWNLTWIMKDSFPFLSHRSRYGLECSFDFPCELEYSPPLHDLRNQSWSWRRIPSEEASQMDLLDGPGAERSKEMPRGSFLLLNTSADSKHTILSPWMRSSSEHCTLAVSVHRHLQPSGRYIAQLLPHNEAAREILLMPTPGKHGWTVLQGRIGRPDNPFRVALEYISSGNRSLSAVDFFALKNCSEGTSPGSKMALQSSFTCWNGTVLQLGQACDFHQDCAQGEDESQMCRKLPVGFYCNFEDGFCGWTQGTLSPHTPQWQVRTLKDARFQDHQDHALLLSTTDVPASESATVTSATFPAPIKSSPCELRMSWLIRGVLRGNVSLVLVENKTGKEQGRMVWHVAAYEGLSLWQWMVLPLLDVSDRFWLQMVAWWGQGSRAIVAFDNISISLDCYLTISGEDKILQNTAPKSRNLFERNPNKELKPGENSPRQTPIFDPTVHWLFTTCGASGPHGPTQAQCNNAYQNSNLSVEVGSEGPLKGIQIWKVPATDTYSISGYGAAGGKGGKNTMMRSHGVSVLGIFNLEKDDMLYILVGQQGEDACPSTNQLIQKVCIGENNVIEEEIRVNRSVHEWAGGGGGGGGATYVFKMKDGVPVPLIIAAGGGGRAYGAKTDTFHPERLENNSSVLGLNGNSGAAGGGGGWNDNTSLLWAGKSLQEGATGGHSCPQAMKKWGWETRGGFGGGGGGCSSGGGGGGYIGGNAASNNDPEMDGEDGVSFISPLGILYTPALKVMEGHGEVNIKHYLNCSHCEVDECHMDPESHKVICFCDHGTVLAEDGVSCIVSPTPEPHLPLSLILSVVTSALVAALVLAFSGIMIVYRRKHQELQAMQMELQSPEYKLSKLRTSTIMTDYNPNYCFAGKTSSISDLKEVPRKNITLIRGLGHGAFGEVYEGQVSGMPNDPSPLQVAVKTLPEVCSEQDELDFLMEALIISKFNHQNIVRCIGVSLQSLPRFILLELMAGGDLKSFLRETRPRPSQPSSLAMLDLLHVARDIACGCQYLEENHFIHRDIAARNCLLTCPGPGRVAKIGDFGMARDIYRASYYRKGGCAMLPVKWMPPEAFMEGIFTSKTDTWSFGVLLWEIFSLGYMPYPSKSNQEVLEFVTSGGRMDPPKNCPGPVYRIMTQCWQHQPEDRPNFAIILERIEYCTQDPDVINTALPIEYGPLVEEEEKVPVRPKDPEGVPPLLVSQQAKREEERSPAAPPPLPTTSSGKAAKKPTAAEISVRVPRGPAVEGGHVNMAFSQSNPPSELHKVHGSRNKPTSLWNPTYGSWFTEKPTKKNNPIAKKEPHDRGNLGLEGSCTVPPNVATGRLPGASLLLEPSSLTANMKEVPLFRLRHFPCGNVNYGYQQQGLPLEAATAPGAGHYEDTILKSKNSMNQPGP
Protocol: To evaluate selectivity versus other kinases, inhibition of various kinases by compound (II) was determined. In particular, IC50s for TrkA, Jak2, Axl tyrosine kinases were determined using ADP Hunter (DiscoverX) kinase assay. Single point profiling of compound (II) on 50 human tyrosine kinases and 10 Ser-Thr kinases was done at Upstate/Millipore by radiometric assay. […] The subset of the 520 kinases in the human kinome that were tested was strategically selected to cover most of the therapeutically relevant tyrosine kinases and to represent major branches of serine-threonine kinases.
Compound (II) was a multitargeted tyrosine kinase (TK) inhibitor with a distinct pattern of inhibition focused on ALK, Trk family, Ros and Ret kinases. Invitrogen SelectScreen (Z-lyte assay) produced the following IC5O values for this set of kinases: ALK 9.75 nM, TrkA 1.5 nM, TrkB 1.4 nM, TrkC 1.8 nM, Ret 7.1 nM, Ros 1.8 nM (all measured at 100 μM ATP). […] About 70% of the 50 TKs tested have selectivity in excess of 50-fold for ALK and higher for Ret, Ros and Trk family members.

Cc1ccc(F)cc1C[C@H](C)Nc1cc[nH]c(=O)c1-c1nc2cc3c(cc2[nH]1)C(=O)N(CCN1CCCC1)C3 [compound (II)]
Concentration dissolved in 20-50 mM acetic or tartaric acid [1]: up to 5 mg/ml
activity at 1 µM (CYP2C9; human, recombinant CYP2C9, probe MFC, 1.0E−06 M, Table 5B individual results, read-out: CYP2C9 % Inhibition of Control Values, 1st/2nd/3rd): 75.8%
activity at 5 µM (CYP2C9; human, recombinant CYP2C9, probe MFC, 5.0E−06 M, Table 5B individual results, read-out: CYP2C9 % Inhibition of Control Values, 1st/2nd/3rd): 63.8%
inhibition at 1 µM (CYP2C9; human, recombinant CYP2C9, probe MFC, 1.0E−06 M, read-out: CYP2C9 % Inhibition of Control Values): 20%
inhibition at 5 µM (CYP2C9; human, recombinant CYP2C9, probe MFC, 5.0E−06 M, read-out: CYP2C9 % Inhibition of Control Values): 41%
IC50 (CYP2C9; read-out: approximate IC50 CYP2C9): > 5000 nM
Adverse effects at 5 and 10 mg/kg oral [2]: No adverse effects were observed
Tolerability at 2.5 or 5 mg/kg IP [2]: safe
Tolerability at 10 and 20 mg/kg IP [2]: exceeded MTD
IC50 [3]: ~2500 nM
IC50 (UConn): 30 nM
Papp A→B at 10 µM ([4]; Caco-2, pH 6.5, Caco-2 (TC7) A-B permeability coefficient, pH 6.5/7.4, 10 μM compound): 0.4 ×10⁻⁶ cm/s
recovery at 10 µM ([4]; Caco-2, pH 6.5, Caco-2 recovery, pH 6.5/7.4, 10 μM compound): 49%
Papp A→B at 10 µM ([4]; Caco-2, pH 6.5, Mean Permeability, A-B Permeability (TC7, pH 6.5/7.4), test concentration 1.0E−05 M, mean of n = 2): 0.4 ×10⁻⁶ cm/s
recovery at 10 µM ([4]; Caco-2, pH 6.5, Mean Recovery, A-B Permeability (TC7, pH 6.5/7.4), test concentration 1.0E−05 M, mean of n = 2): 49%
Papp A→B at 10 µM ([4]; Caco-2, pH 6.5, Permeability 1st, A-B Permeability (TC7, pH 6.5/7.4), test concentration 1.0E−05 M, 1st replicate): 0.41 ×10⁻⁶ cm/s
Papp A→B at 10 µM ([4]; Caco-2, pH 6.5, Permeability 2nd, A-B Permeability (TC7, pH 6.5/7.4), test concentration 1.0E−05 M, 2nd replicate): 0.44 ×10⁻⁶ cm/s
recovery at 10 µM ([4]; Caco-2, pH 6.5, Present Recovery 1st, A-B Permeability (TC7, pH 6.5/7.4), test concentration 1.0E−05 M, 1st replicate): 50%
recovery at 10 µM ([4]; Caco-2, pH 6.5, Present Recovery 2nd, A-B Permeability (TC7, pH 6.5/7.4), test concentration 1.0E−05 M, 2nd replicate): 47%
% Protein Bound, Mean ([5]; equilibrium dialysis): 94.7%
% Protein Bound, 1st/2nd ([5]; individual data, listed as CRL241): 94.6% and 94.7%
IC50 (Fer): 42 nM
IC50 (ALK): 9.75 nM
